Test results reported in PubChem BioAssay AID248 (DTP/NCI, 2004).
Several values for one entry are separate records, joined by “and”; a condition that tells them apart may be missing. Identical values can stand only once. Toxic doses and inconclusive results are not listed. Cut-off read from the data, not from the text of the source: active = T/C of 150% or more; inactive = T/C below 125%.

System: L1210 leukemia ip in BDF1 mice, survival T/C
Assay: NCI In Vivo Anticancer Drug Screen. Data for tumor model L1210 Leukemia (intraperitoneal) in B6D2F1 (BDF1) mice
Conditions: endpoint: mean survival time, higher = longer survival
Summary of the method: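 Ratio derived from survival: compound-dosed mice over vehicle-dosed mice, all bearing a transplantable tumor.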

[1] = dose: 100.0 mg/kg/injection, schedule: Q04DX002 (ip), vehicle: saline
[2] = dose: 200.0 mg/kg/injection, schedule: Q04DX002 (ip), vehicle: saline
[3] = dose: 100.0 mg/kg/injection, schedule: Q01DX001 (ip), vehicle: Klucel (hydroxypropylcellulose) (HPC)
[4] = dose: 100.0 mg/kg/injection, schedule: Q01DX001 (ip), vehicle: saline with Tween-80
[5] = dose: 200.0 mg/kg/injection, schedule: Q01DX001 (ip), vehicle: Klucel (hydroxypropylcellulose) (HPC)
[6] = dose: 200.0 mg/kg/injection, schedule: Q01DX001 (ip), vehicle: saline with Tween-80
[7] = dose: 400.0 mg/kg/injection, schedule: Q01DX001 (ip), vehicle: saline with Tween-80
[8] = dose: 12.5 mg/kg/injection, schedule: Q04DX003 (ip), vehicle: saline
[9] = dose: 25.0 mg/kg/injection, schedule: Q04DX003 (ip), vehicle: saline
[10] = dose: 50.0 mg/kg/injection, schedule: Q04DX003 (ip), vehicle: saline
[11] = dose: 100.0 mg/kg/injection, schedule: Q04DX003 (ip), vehicle: saline
[12] = dose: 200.0 mg/kg/injection, schedule: Q04DX003 (ip), vehicle: saline
[13] = dose: 400.0 mg/kg/injection, schedule: Q04DX003 (ip), vehicle: saline
[14] = dose: 100.0 mg/kg/injection, schedule: Q01DX009 (ip), vehicle: saline with Tween-80
[15] = dose: 200.0 mg/kg/injection, schedule: Q01DX009 (ip), vehicle: saline with Tween-80
[16] = dose: 400.0 mg/kg/injection, schedule: Q01DX009 (ip), vehicle: saline with Tween-80

Measured: T/C

C[N+](C)(N)Cc1ccc(C[N+](C)(C)N)cc1
inactive: [1] 108 % of control | [2] 97 % of control

[O-][n+]1ccccc1CCO
inactive: [1] 98 % of control | [2] 106 % of control | dose: 400.0 mg/kg/injection, schedule: Q04DX002 (ip), vehicle: saline 92 % of control

COC1OC2COC(c3ccccc3)OC2C(O)C1NC(C)=O (centres undefined)
inactive: [3] 95 % of control | [4] 101 % of control | [5] 104 % of control | [6] 97 % of control | [7] 98 % of control

O=c1[nH]cc(COCC(F)(F)C(F)(F)C(F)(F)F)c(=O)[nH]1
inactive: dose: 50.0 mg/kg/injection, schedule: Q01DX005 (ip), vehicle: water 104 % of control | dose: 100.0 mg/kg/injection, schedule: Q01DX005 (ip), vehicle: water 93 % of control | dose: 200.0 mg/kg/injection, schedule: Q01DX005 (ip), vehicle: water 95 % of control | dose: 400.0 mg/kg/injection, schedule: Q01DX005 (ip), vehicle: water 87 % of control

COc1ccc2c(c1)[nH]c1c(C)nccc12
inactive: dose: 75.0 mg/kg/injection, schedule: Q01DX Z (ip), vehicle: saline 96 % of control | dose: 150.0 mg/kg/injection, schedule: Q01DX Z (ip), vehicle: saline 100 % of control | dose: 300.0 mg/kg/injection, schedule: Q01DX Z (ip), vehicle: saline 96 % of control and 108 % of control

COc1ccc(C2OCC(C)([N+](=O)[O-])CO2)cc1 (centres undefined)
inactive: dose: 50.0 mg/kg/injection, schedule: Q01DX001 (ip), vehicle: Klucel (hydroxypropylcellulose) (HPC) 94 % of control | dose: 50.0 mg/kg/injection, schedule: Q04DX002 (ip), vehicle: Klucel (hydroxypropylcellulose) (HPC) 103 % of control | [3] 96 % of control | dose: 100.0 mg/kg/injection, schedule: Q04DX002 (ip), vehicle: Klucel (hydroxypropylcellulose) (HPC) 96 % of control and 102 % of control | [5] 98 % of control | dose: 200.0 mg/kg/injection, schedule: Q04DX002 (ip), vehicle: Klucel (hydroxypropylcellulose) (HPC) 96 % of control and 100 % of control | dose: 400.0 mg/kg/injection, schedule: Q01DX001 (ip), vehicle: Klucel (hydroxypropylcellulose) (HPC) 98 % of control | dose: 400.0 mg/kg/injection, schedule: Q04DX002 (ip), vehicle: Klucel (hydroxypropylcellulose) (HPC) 99 % of control and 121 % of control

CC(C)COC(=O)c1ccc(NC(=O)Nc2ccc(F)cc2)cc1
inactive: dose: 100.0 mg/kg/injection, schedule: Q01DX001 (ip), vehicle: carboxymethylcellulose (CMC) 99 % of control | dose: 100.0 mg/kg/injection, schedule: Q01DX009 (ip), vehicle: carboxymethylcellulose (CMC) 92 % of control and 97 % of control | dose: 100.0 mg/kg/injection, schedule: Q04DX002 (ip), vehicle: carboxymethylcellulose (CMC) 93 % of control and 103 % of control | dose: 100.0 mg/kg/injection, schedule: Q04DX003 (ip), vehicle: carboxymethylcellulose (CMC) 96 % of control | dose: 200.0 mg/kg/injection, schedule: Q01DX001 (ip), vehicle: carboxymethylcellulose (CMC) 87 % of control | dose: 200.0 mg/kg/injection, schedule: Q01DX009 (ip), vehicle: carboxymethylcellulose (CMC) 100 % of control and 90 % of control | dose: 200.0 mg/kg/injection, schedule: Q04DX002 (ip), vehicle: carboxymethylcellulose (CMC) 92 % of control and 91 % of control | dose: 200.0 mg/kg/injection, schedule: Q04DX003 (ip), vehicle: carboxymethylcellulose (CMC) 96 % of control | dose: 400.0 mg/kg/injection, schedule: Q01DX001 (ip), vehicle: carboxymethylcellulose (CMC) 96 % of control | dose: 400.0 mg/kg/injection, schedule: Q01DX009 (ip), vehicle: carboxymethylcellulose (CMC) 100 % of control | dose: 400.0 mg/kg/injection, schedule: Q04DX002 (ip), vehicle: carboxymethylcellulose (CMC) 100 % of control and 102 % of control | dose: 400.0 mg/kg/injection, schedule: Q04DX003 (ip), vehicle: carboxymethylcellulose (CMC) 95 % of control

O=C1NC(=O)C(CO)(CO)N1
inactive: [8] 110 % of control | [9] 97 % of control | [10] 100 % of control | dose: 100.0 mg/kg/injection, schedule: Q01DX009 (ip), vehicle: saline 110 % of control | [11] 121 % of control | dose: 200.0 mg/kg/injection, schedule: Q01DX009 (ip), vehicle: saline 107 % of control | [12] 103 % of control | dose: 400.0 mg/kg/injection, schedule: Q01DX009 (ip), vehicle: saline 113 % of control | [13] 105 % of control

CCCCCCCCCCCCCCCCCCNC(=S)N/N=C/c1ccccc1[N+](=O)[O-]
inactive: dose: 111.0 mg/kg/injection, schedule: Q01DX Z (ip), vehicle: methylcellulose (MC) 90 % of control | dose: 166.0 mg/kg/injection, schedule: Q01DX Z (ip), vehicle: methylcellulose (MC) 86 % of control

COC(=O)c1noc2cc([N+](=O)[O-])ccc12
inactive: [14] 96 % of control | [15] 92 % of control | [16] 90 % of control

O=Nc1ccc(NO)c2ccccc12
inactive: [8] 108 % of control | dose: 25.0 mg/kg/injection, schedule: Q04DX003 (ip), vehicle: saline + alcohol 100 % of control | [9] 102 % of control | dose: 50.0 mg/kg/injection, schedule: Q04DX003 (ip), vehicle: saline + alcohol 100 % of control | [10] 100 % of control | dose: 100.0 mg/kg/injection, schedule: Q04DX003 (ip), vehicle: saline + alcohol 96 % of control | [11] 99 % of control

CC(=O)NN(CCN(NC(C)=O)C(C)=O)C(C)=O
inactive: [11] 104 % of control | [12] 95 % of control | [13] 101 % of control

O=C(Nc1ccc(F)cc1)Nc1ccc(Cl)cc1[N+](=O)[O-]
inactive: dose: 50.0 mg/kg/injection, schedule: Q01DX009 (ip), vehicle: saline with Tween-80 94 % of control and 95 % of control | [4] 100 % of control | dose: 100.0 mg/kg/injection, schedule: Q04DX002 (ip), vehicle: saline with Tween-80 102 % of control and 92 % of control | dose: 100.0 mg/kg/injection, schedule: Q04DX003 (ip), vehicle: saline with Tween-80 100 % of control | [6] 95 % of control | dose: 200.0 mg/kg/injection, schedule: Q04DX002 (ip), vehicle: saline with Tween-80 95 % of control and 101 % of control | dose: 200.0 mg/kg/injection, schedule: Q04DX003 (ip), vehicle: saline with Tween-80 97 % of control | [7] 92 % of control | dose: 400.0 mg/kg/injection, schedule: Q04DX002 (ip), vehicle: saline with Tween-80 93 % of control and 98 % of control | dose: 400.0 mg/kg/injection, schedule: Q04DX003 (ip), vehicle: saline with Tween-80 94 % of control

O=C(COc1cccc(Cl)c1Cl)NCc1ccc(Cl)cc1
inactive: [14] 100 % of control | [15] 97 % of control | [16] 96 % of control

O/N=C\CCC/C=N/O
inactive: dose: 100.0 mg/kg/injection, schedule: Q01DX009 (ip), vehicle: Klucel (hydroxypropylcellulose) (HPC) 98 % of control | dose: 100.0 mg/kg/injection, schedule: Q04DX003 (ip), vehicle: Klucel (hydroxypropylcellulose) (HPC) 100 % of control | dose: 200.0 mg/kg/injection, schedule: Q01DX009 (ip), vehicle: Klucel (hydroxypropylcellulose) (HPC) 91 % of control | dose: 200.0 mg/kg/injection, schedule: Q04DX003 (ip), vehicle: Klucel (hydroxypropylcellulose) (HPC) 94 % of control | dose: 400.0 mg/kg/injection, schedule: Q04DX003 (ip), vehicle: Klucel (hydroxypropylcellulose) (HPC) 103 % of control
